Reference: patent US11820776B2, “Process for the preparation of Remimazolam and solid state forms of Remimazolam salts” (WATSON LABORATORIES INC., priority 2017, dated 2023)

Assays:
Type in all cases: physicochemical
[1] = Solubility in various pH ranges; conditions: comparator not stated
[2] = Kinetic water solubility; conditions: comparator not stated
[3] = Solid state stability at 80% relative humidity in open Petri dish; conditions: 80% relative humidity (RH), room temperature (RT)
[4] = Compressibility properties; conditions: compared to Remimazolam besylate; may indicate better flow properties
[5] = Bulk density; conditions: compared to Remimazolam besylate

SMILES	solubility in various pH ranges [1]	kinetic water solubility [2]	period for which the crystalline form is stable [3]	compressibility properties [4]	bulk density [5]
Br.COC(=O)CC[C@@H]1N=C(c2ccccn2)c2cc(Br)ccc2-n2c(C)cnc21 [Form 1 of Remimazolam Mono hydrobromide]	improved	improved	at least 24 hours		
CC1(C)C2CCC1(CS(=O)(=O)O)C(=O)C2.COC(=O)CC[C@@H]1N=C(c2ccccn2)c2cc(Br)ccc2-n2c(C)cnc21 [Form 2 of Remimazolam Camphor Sulfonate]			at least 24 hours	improved	higher
COC(=O)CC[C@@H]1N=C(c2ccccn2)c2cc(Br)ccc2-n2c(C)cnc21.CS(=O)(=O)O [Form 2 of Remimazolam Methane Sulfonate]	improved	improved	at least 24 hours		
